{
  "source": "patent US8802895B2",
  "about": "“Amide derivatives of benzene-sulfonanilide, pharmaceutical composition thereof and method for cancer treatment using the same” (Cleveland State University, priority 2010, dated 2014)",
  "format_in_all_cases": "cell-based",
  "key": {"NCI-H23": {"test_system": "NCI-H23", "assay": "NCIDTP 60 cancer cell lines screening, Non-Small Cell Lung Cancer panel"}, "M14": {"test_system": "M14", "assay": "NCIDTP 60 cancer cell lines screening, Melanoma panel"}, "CAKI-1": {"test_system": "CAKI-1", "assay": "NCIDTP 60 cancer cell lines screening, Renal Cancer panel"}, "SF-268": {"test_system": "SF-268", "assay": "NCIDTP 60 cancer cell lines screening, CNS Cancer panel"}, "786-0": {"test_system": "786-0", "assay": "NCIDTP 60 cancer cell lines screening, Renal Cancer panel"}, "EKVX": {"test_system": "EKVX", "assay": "NCIDTP 60 cancer cell lines screening, Non-Small Cell Lung Cancer panel"}, "K-562": {"test_system": "K-562", "assay": "NCIDTP 60 cancer cell lines screening, Leukemia panel"}, "SNB-75": {"test_system": "SNB-75", "assay": "NCIDTP 60 cancer cell lines screening, CNS Cancer panel"}, "UACC-62": {"test_system": "UACC-62", "assay": "NCIDTP 60 cancer cell lines screening, Melanoma panel"}, "NCI/ADR-RES": {"test_system": "NCI/ADR-RES", "assay": "NCIDTP 60 cancer cell lines screening, Ovarian Cancer panel"}},
  "data": [
    {"smiles": "Cc1ccc(C)c(COc2cc(NC(=O)c3ccc4c(c3)OCO4)ccc2N(C)S(C)(=O)=O)c1", "note": "[Compound #10, Benzo[1,3]dioxole-5-carboxylic acid [3-(2,5-dimethyl-benzyloxy)-4-(methanesulfonyl-methyl-amino)-phenyl]-amide]", "values": [
      {"measurement": "GI50", "setting": "NCI-H23; Homo sapiens, NCI-H23", "result": 162, "unit": "nM"},
      {"measurement": "CC50", "setting": "NCI-H23; Homo sapiens, NCI-H23, read-out: LC50", "result": "> 100000", "unit": "nM"},
      {"measurement": "TGI", "setting": "NCI-H23; NCI-H23", "result": ">1.00E−4", "unit": "Molar"},
      {"measurement": "Percent Growth", "setting": "NCI-H23; NCI-H23, Log10 Concentration −4.0 Molar", "result": 2, "unit": "%"},
      {"measurement": "Percent Growth", "setting": "NCI-H23; NCI-H23, Log10 Concentration −5.0 Molar", "result": 3, "unit": "%"},
      {"measurement": "Percent Growth", "setting": "NCI-H23; NCI-H23, Log10 Concentration −6.0 Molar", "result": 5, "unit": "%"},
      {"measurement": "Percent Growth", "setting": "NCI-H23; NCI-H23, Log10 Concentration −7.0 Molar", "result": 62, "unit": "%"},
      {"measurement": "Percent Growth", "setting": "NCI-H23; NCI-H23, Log10 Concentration −8.0 Molar", "result": 97, "unit": "%"},
      {"measurement": "GI50", "setting": "M14; Homo sapiens, M14", "result": 75.7, "unit": "nM"},
      {"measurement": "CC50", "setting": "M14; Homo sapiens, M14, read-out: LC50", "result": "> 100000", "unit": "nM"},
      {"measurement": "TGI", "setting": "M14; M14", "result": "6.69E−7", "unit": "Molar"},
      {"measurement": "Percent Growth", "setting": "M14; M14, Log10 Concentration −4.0 Molar", "result": "−29", "unit": "%"},
      {"measurement": "Percent Growth", "setting": "M14; M14, Log10 Concentration −5.0 Molar", "result": "−45", "unit": "%"},
      {"measurement": "Percent Growth", "setting": "M14; M14, Log10 Concentration −6.0 Molar", "result": "−9", "unit": "%"},
      {"measurement": "Percent Growth", "setting": "M14; M14, Log10 Concentration −7.0 Molar", "result": 45, "unit": "%"},
      {"measurement": "Percent Growth", "setting": "M14; M14, Log10 Concentration −8.0 Molar", "result": 90, "unit": "%"},
      {"measurement": "TGI", "setting": "CAKI-1; CAKI-1", "result": ">1.00E−4", "unit": "Molar"},
      {"measurement": "Percent Growth", "setting": "CAKI-1; CAKI-1, Log10 Concentration −4.0 Molar", "result": 5, "unit": "%"},
      {"measurement": "Percent Growth", "setting": "CAKI-1; CAKI-1, Log10 Concentration −5.0 Molar", "result": 2, "unit": "%"},
      {"measurement": "Percent Growth", "setting": "CAKI-1; CAKI-1, Log10 Concentration −6.0 Molar", "result": 16, "unit": "%"},
      {"measurement": "Percent Growth", "setting": "CAKI-1; CAKI-1, Log10 Concentration −7.0 Molar", "result": 54, "unit": "%"},
      {"measurement": "Percent Growth", "setting": "CAKI-1; CAKI-1, Log10 Concentration −8.0 Molar", "result": 100, "unit": "%"},
      {"measurement": "GI50", "setting": "CAKI-1; Homo sapiens, CAKI-1", "result": 126, "unit": "nM"},
      {"measurement": "CC50", "setting": "CAKI-1; Homo sapiens, CAKI-1, read-out: LC50", "result": "> 100000", "unit": "nM"},
      {"measurement": "GI50", "setting": "SF-268; Homo sapiens, SF-268", "result": 288, "unit": "nM"},
      {"measurement": "CC50", "setting": "SF-268; Homo sapiens, SF-268, read-out: LC50", "result": "> 100000", "unit": "nM"},
      {"measurement": "TGI", "setting": "SF-268; SF-268", "result": ">1.00E−4", "unit": "Molar"},
      {"measurement": "Percent Growth", "setting": "SF-268; SF-268, Log10 Concentration −4.0 Molar", "result": 16, "unit": "%"},
      {"measurement": "Percent Growth", "setting": "SF-268; SF-268, Log10 Concentration −5.0 Molar", "result": 9, "unit": "%"},
      {"measurement": "Percent Growth", "setting": "SF-268; SF-268, Log10 Concentration −6.0 Molar", "result": 19, "unit": "%"},
      {"measurement": "Percent Growth", "setting": "SF-268; SF-268, Log10 Concentration −7.0 Molar", "result": 77, "unit": "%"},
      {"measurement": "Percent Growth", "setting": "SF-268; SF-268, Log10 Concentration −8.0 Molar", "result": 93, "unit": "%"},
      {"measurement": "TGI", "setting": "786-0; 786-0", "result": "1.11E−6", "unit": "Molar"},
      {"measurement": "Percent Growth", "setting": "786-0; 786-0, Log10 Concentration −4.0 Molar", "result": "−14", "unit": "%"},
      {"measurement": "Percent Growth", "setting": "786-0; 786-0, Log10 Concentration −5.0 Molar", "result": "−22", "unit": "%"},
      {"measurement": "Percent Growth", "setting": "786-0; 786-0, Log10 Concentration −6.0 Molar", "result": 1, "unit": "%"},
      {"measurement": "Percent Growth", "setting": "786-0; 786-0, Log10 Concentration −7.0 Molar", "result": 69, "unit": "%"},
      {"measurement": "Percent Growth", "setting": "786-0; 786-0, Log10 Concentration −8.0 Molar", "result": 91, "unit": "%"},
      {"measurement": "GI50", "setting": "786-0; Homo sapiens, 786-0", "result": 191, "unit": "nM"},
      {"measurement": "CC50", "setting": "786-0; Homo sapiens, 786-0, read-out: LC50", "result": "> 100000", "unit": "nM"},
      {"measurement": "TGI", "setting": "EKVX", "result": ">1.00E−4", "unit": "Molar"},
      {"measurement": "GI50", "setting": "EKVX; Homo sapiens", "result": 598, "unit": "nM"},
      {"measurement": "CC50", "setting": "EKVX; Homo sapiens, read-out: LC50", "result": "> 100000", "unit": "nM"},
      {"measurement": "Percent Growth", "setting": "EKVX; Log10 Concentration −4.0 Molar", "result": 33, "unit": "%"},
      {"measurement": "Percent Growth", "setting": "EKVX; Log10 Concentration −5.0 Molar", "result": 25, "unit": "%"},
      {"measurement": "Percent Growth", "setting": "EKVX; Log10 Concentration −6.0 Molar", "result": 39, "unit": "%"},
      {"measurement": "Percent Growth", "setting": "EKVX; Log10 Concentration −7.0 Molar", "result": 88, "unit": "%"},
      {"measurement": "Percent Growth", "setting": "EKVX; Log10 Concentration −8.0 Molar", "result": 94, "unit": "%"},
      {"measurement": "CC50", "setting": "K-562; Homo sapiens, K562, read-out: LC50", "result": "> 100000", "unit": "nM"},
      {"measurement": "GI50", "setting": "K-562; Homo sapiens, K562, K-562", "result": 40.3, "unit": "nM"},
      {"measurement": "TGI", "setting": "K-562; K-562", "result": ">1.00E−4", "unit": "Molar"},
      {"measurement": "Percent Growth", "setting": "K-562; K-562, Log10 Concentration −4.0 Molar", "result": 9, "unit": "%"},
      {"measurement": "Percent Growth", "setting": "K-562; K-562, Log10 Concentration −5.0 Molar", "result": 9, "unit": "%"},
      {"measurement": "Percent Growth", "setting": "K-562; K-562, Log10 Concentration −6.0 Molar", "result": 11, "unit": "%"},
      {"measurement": "Percent Growth", "setting": "K-562; K-562, Log10 Concentration −7.0 Molar", "result": 20, "unit": "%"},
      {"measurement": "Percent Growth", "setting": "K-562; K-562, Log10 Concentration −8.0 Molar", "result": 96, "unit": "%"},
      {"measurement": "GI50", "setting": "SNB-75; Homo sapiens, SNB-75", "result": 266, "unit": "nM"},
      {"measurement": "CC50", "setting": "SNB-75; Homo sapiens, SNB-75, read-out: LC50", "result": "> 100000", "unit": "nM"},
      {"measurement": "Percent Growth", "setting": "SNB-75; SNB-75, Log10 Concentration −4.0 Molar", "result": 3, "unit": "%"},
      {"measurement": "Percent Growth", "setting": "SNB-75; SNB-75, Log10 Concentration −5.0 Molar", "result": "−6", "unit": "%"},
      {"measurement": "Percent Growth", "setting": "SNB-75; SNB-75, Log10 Concentration −6.0 Molar", "result": "−5", "unit": "%"},
      {"measurement": "Percent Growth", "setting": "SNB-75; SNB-75, Log10 Concentration −7.0 Molar", "result": 91, "unit": "%"},
      {"measurement": "Percent Growth", "setting": "SNB-75; SNB-75, Log10 Concentration −8.0 Molar", "result": 86, "unit": "%"},
      {"measurement": "GI50", "setting": "UACC-62; Homo sapiens, UACC-62", "result": 414, "unit": "nM"},
      {"measurement": "CC50", "setting": "UACC-62; Homo sapiens, UACC-62, read-out: LC50", "result": "> 100000", "unit": "nM"},
      {"measurement": "TGI", "setting": "UACC-62; UACC-62", "result": ">1.00E−4", "unit": "Molar"},
      {"measurement": "Percent Growth", "setting": "UACC-62; UACC-62, Log10 Concentration −4.0 Molar", "result": 14, "unit": "%"},
      {"measurement": "Percent Growth", "setting": "UACC-62; UACC-62, Log10 Concentration −5.0 Molar", "result": 15, "unit": "%"},
      {"measurement": "Percent Growth", "setting": "UACC-62; UACC-62, Log10 Concentration −6.0 Molar", "result": 37, "unit": "%"},
      {"measurement": "Percent Growth", "setting": "UACC-62; UACC-62, Log10 Concentration −7.0 Molar", "result": 71, "unit": "%"},
      {"measurement": "Percent Growth", "setting": "UACC-62; UACC-62, Log10 Concentration −8.0 Molar", "result": 94, "unit": "%"},
      {"measurement": "TGI", "setting": "NCI/ADR-RES", "result": "4.07E−7", "unit": "Molar"},
      {"measurement": "GI50", "setting": "NCI/ADR-RES; Homo sapiens", "result": 56.2, "unit": "nM"},
      {"measurement": "CC50", "setting": "NCI/ADR-RES; Homo sapiens, read-out: LC50", "result": "> 100000", "unit": "nM"},
      {"measurement": "Percent Growth", "setting": "NCI/ADR-RES; Log10 Concentration −4.0 Molar", "result": "−20", "unit": "%"},
      {"measurement": "Percent Growth", "setting": "NCI/ADR-RES; Log10 Concentration −5.0 Molar", "result": "−12", "unit": "%"},
      {"measurement": "Percent Growth", "setting": "NCI/ADR-RES; Log10 Concentration −6.0 Molar", "result": "−22", "unit": "%"},
      {"measurement": "Percent Growth", "setting": "NCI/ADR-RES; Log10 Concentration −7.0 Molar", "result": 34, "unit": "%"},
      {"measurement": "Percent Growth", "setting": "NCI/ADR-RES; Log10 Concentration −8.0 Molar", "result": 98, "unit": "%"}
    ]}
  ]
}
